One test has as its system c-Src. Conditions: cited from earlier work. The text has this:
Given the role of NFAT proteins in regulating transcription of IFN-γ[46],[47], suppression of NFAT attenuates IFN-γ-activated endogenous IL-12p40 mRNA expression. In addition, IFN-γ production in DCs is dependent on a Janus kinase (JAK) family member, Tyk2, that signals via signal transducers and activators of transcription (STATs)[49] and within DCs, c-Src contributes to c ... || Given the role of Lck in upstream signalling upon TCR activation[34],[35] which leads to IL-2 production[10],[11], we tested the effect of a known Lck inhibitor, A-770041 on IL-2 expression within supernatants from stimulated T cell cultures after 72 h.

Test [1] has as its system CD4+ T cells within PBMC cultures. Nature of the test: Intracellular IFN-γ in CD4+ T cells within PBMC cultures (flow cytometry). Format: cell-based, human. Conditions: anti-CD3, 24 h, MFI, n = 4, Fig. 5c. The procedure:
(§1) PBMCs were resuspended in RPMI-10 (RPMI-1640; ThermoFisher) supplemented with 10% heat inactivated Foetal Bovine Serum (LabTech), 100 U/mL penicillin, 100 µg/mL streptomycin (ThermoFisher), 2 mM L-glutamine (ThermoFisher), and 50 µM β-mercaptoethanol (ThermoFisher) at 1 × 10^6 cells/mL and plated at a density of 1 × 10^5 per well (100 µL) in 96-well, flat-bottom culture plates. PBMCs were stimulated with 1 µg/mL of soluble anti-CD3 (BioLegend). The lipidic peptide, IK14004, and IK14000, i.e., […] minus conjugation to [{2}Adod]4, were solubilised as a 1 mM stock solution in sterile milliQ water (Lonza) and added to wells at a final volume of 50 µL per well together with soluble anti-CD3 (1 µg/mL final, 50 µL per well) (Biolegend). To test the effect of peptides, cells were cultured for 24–72 h at 37 °C and 5% CO2. Vehicle controls in peptide-based experiments comprised 0.13% sterile milliQ water in culture medium whereas 0.1% DMSO in culture medium was used as vehicle control for comparison with the Lck inhibitor, A-770041, in the absence of peptides. […]

Another test has as its system Lck-WT protein. The test can be described thus: Lck binding assay (non-cell-based ELISA). The note with it: peptide coated 10 µg/mL in PBS, 4 °C 20 h; Lck-WT (mCherry, c-myc tag) 2 h room temperature, HRP anti myc, 450 nm; duplicate experiments, 3 technical replicates; negative control PBS; Fig. 6b. The procedure: Lck wild-type (Lck-WT) was prepared in CHO cells. The plasmid for the expression of Lck-WT protein was kindly provided by the research laboratory of Professor Katarina Gaus. The plasmid was encoded for mammalian cell expression of the Lck-WT protein with a C-terminal mCherry reporter. A twin-strep tag was incorporated at the N-terminal of the Lck-WT for purification, and a c-myc epitope tag was placed at the C-terminal, after mCherry for detection of protein expression. A midiprep DNA preparation of the plasmid was performed using the Macherey–Nagel Midi kit as per manufacturer’s instructions. For transient transfections plasmid DNA was transfected into CHO-S cells using 2 μg DNA mL^−1 cells at a concentration of 3 million cells mL^−1. DNA was complexed with polyethylenimine-Pro (PolyPlus) in Opti-Pro serum free medium (Life Technologies) at a DNA (μg) to PEI (μL) ratio of 1:4 (w:v) for 15 min prior to transfecting suspension adapted CHO cells. […]
The peptides, IK14004 and IK14000, were reconstituted into PBS at 1 mg/mL. […] 100 µL of 2 M sulphuric acid was added to stop the reaction and the absorbance values recorded at a wavelength of 450 nm using SpectraMax (Molecular Devices).

Test [2] deals with CD8+ T cells within PBMC cultures. The test can be described thus: Intracellular IFN-γ in CD8+ T cells within PBMC cultures (flow cytometry). The test is classed as cell-based, human. Conditions: anti-CD3, 24 h, MFI, n = 4, Fig. 5d. The procedure:
as §1
(In general: A flow cytometer gives signals particle by particle.)

We go through one sequence from paper PMC9249808, “A novel lipidic peptide with potential to promote balanced effector-regulatory T cell responses” (Scientific Reports, 2022).

As to RSKAKNPLYR [IK14000], in the test with c-Src, the “c-Src activity, earlier report” value is reported as “inhibits c-Src activity”. Moreover, in test [1], the “intracellular expression of IFN-γ in CD4+ T cells” value is recorded as “unchanged”. For the same sequence, the “binding to Lck” value in the test with Lck-WT protein is given as “no different to the negative control”. The “intracellular expression of IFN-γ in CD8+ T cells” value in test [2] was “unchanged”.
